# Experiments:
# KB 3-1 = experiment: Compound was tested for cytotoxicity against human epidermoid carcinoma KB 3-1; type: functional, cell-based
# Plasmodium falciparum = experiment: Antimalarial activity against Plasmodium falciparum; type: functional, organism-based
# [1] = (§1) Selective toxicity index between parasite and cells of host-animals, human epidermoid carcinoma KB 3-1; type: organism-based; conditions: KB 3-1 human epidermoid carcinoma cells
# Homo sapiens = species: Homo sapiens; experiment: as §1; type: organism-based
SMILES,"IC50 (KB 3-1; Homo sapiens, KB 3-1) [nM]",IC50 (Plasmodium falciparum; Plasmodium falciparum) [nM],selectivity ratio [1],IC50 (KB 3-1; kb 3-1) [nM],IC50 (Plasmodium falciparum) [nM],Ratio (Homo sapiens)
COC(=O)CC1CCC(C)(OC)OO1 (centres undefined),> 490,> 2400,,,,
CCCCC[C@]1(OC)CC[C@@H](CC(=O)OC)OO1,53000,150,350,,,
CC/C=C/C=C/CC[C@]1(OC)CC[C@H]([C@@H](C)C(=O)OC)OO1,28000,120,230,,,
CCCCC[C@]1(OC)CC[C@H](CC(=O)OC)OO1,23000,150,150,,,
CCCCCCCCCC1(OC)CCC(CC(=O)OC)OO1 (centres undefined),4400,140,31,,,
CCCCCCCCC[C@]1(OC)CC[C@@H](CC(=O)OC)OO1,4400,170,26,,,
CCCCCCCCC[C@]1(OC)CC[C@H](CC(=O)OC)OO1 (relative stereo),2200,260,8,,,
"CC/C=C/C=C/CC[C@]1(OC)CC[C@@H](C(C)C(=O)OC)OO1 (single isomer, unassigned)",21000,150,140,,,
"CCCCCC1(OC)CCC(CC(=O)OC)OO1 (single isomer, unassigned; (+))",,,,77000,220,350
"CCCCCC1(OC)CCC(CC(=O)OC)OO1 (single isomer, unassigned; (-))",,,,82000,,370
CCCCCC1(OC)CCC(CC(=O)OC)OO1 (stereo in doubt; 5),43000,120,360,,,
CCCCCCCCCCCCCCCC[C@@]1(OC)C=C[C@@H](CC(=O)OC)OO1 [CHONDRILLIN],630,> 240,< 2.6,,,

# From ChEMBL document CHEMBL1135097, “New readily accessible peroxides with high anti-malarial potency” (Bioorg Med Chem Lett, 2002)
